28 compounds from US11472811B2, “Pyrazolotriazolopyrimidine derivatives as A2A receptor antagonist” (BEIGENE, LTD., priority 2018, dated 2022) can be followed below.

The term IC50 denotes the midpoint of a concentration-inhibition curve. Lower therefore signals greater potency in that assay.

The assay addresses human A2A receptor (A2AR) (Homo sapiens (Human), UniProt P29274). The assay is described as follows: Luciferase reporter assay (HEK293-A2AR-luc2p/CRE/Hygro cells). The format is cell-based. Conditions: 3 nM CGS21680, 5 h incubation. Put shortly: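 Antagonism was scored as inhibition of CRE-luciferase signal driven by 3 nM CGS21680 (=100%) during a 5 h treatment with compound at 0.1–10000 nM. The line was HEK293 stably carrying human A2AR and luc2P/CRE, preincubated 18 h in 1% FBS containing 1 U/mL ADA. IC50 came from the dose-response curve.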

Sequence of human A2A receptor (A2AR) (P29274 whole entry): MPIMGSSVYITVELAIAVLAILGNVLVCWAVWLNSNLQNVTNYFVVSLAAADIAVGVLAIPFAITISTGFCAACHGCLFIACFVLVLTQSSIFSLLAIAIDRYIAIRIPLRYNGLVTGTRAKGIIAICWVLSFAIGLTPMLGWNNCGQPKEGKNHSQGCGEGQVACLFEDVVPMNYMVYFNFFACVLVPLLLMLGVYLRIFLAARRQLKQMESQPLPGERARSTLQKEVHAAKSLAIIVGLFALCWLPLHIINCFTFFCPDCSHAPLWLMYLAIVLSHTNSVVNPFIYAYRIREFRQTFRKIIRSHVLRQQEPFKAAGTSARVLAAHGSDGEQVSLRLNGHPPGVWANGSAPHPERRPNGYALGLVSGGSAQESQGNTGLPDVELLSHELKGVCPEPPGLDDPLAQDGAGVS

Turning to `CN1CCN(CCNC(=O)C(C)(c2ccccc2)n2ncc3c2nc(N)n2nc(-c4ccco4)nc32)CC1` (stereo not shown) [Example 147, 2-(5-amino-2-(furan-2-yl)-7H-pyrazolo[4,3-e][1,2,4]triazolo[1,5-c]pyrimidin-7-yl)-N-(2-(4-methylpiperazin-1-yl)ethyl)-2-phenylpropanamide], the IC50 was determined as 24.7 nM.
With `C[C@](C(=O)NCc1ccc(F)cn1)(c1ccccc1)n1ncc2c1nc(N)n1nc(-c3ccco3)nc21` [Example 117B, (R)-2-(5-amino-2-(furan-2-yl)-7H-pyrazolo[4,3-e][1,2,4]triazolo[1,5-c]pyrimidin-7-yl)-N-((5-fluoropyridin-2-yl)methyl)-2-phenylpropanamide] the figure was 3.2 nM; with `CC(C(=O)Nc1cccnc1)(c1ccccc1)n1ncc2c1nc(N)n1nc(-c3ccco3)nc21` (stereo not shown) [Example 64, 2-(5-amino-2-(furan-2-yl)-7H-pyrazolo[4,3-e][1,2,4]triazolo[1,5-c]pyrimidin-7-yl)-2-phenyl-N-(pyridin-3-yl)propanamide], 35.1 nM; with `CC(C(=O)NCC1COC1)(c1ccccc1)n1ncc2c1nc(N)n1nc(-c3ccco3)nc21` (stereo not shown) [Example 79, 2-(5-amino-2-(furan-2-yl)-7H-pyrazolo[4,3-e][1,2,4]triazolo[1,5-c]pyrimidin-7-yl)-N-(oxetan-3-ylmethyl)-2-phenylpropanamide], 31 nM.
For the compound `CC(C(=O)NCCc1ccccc1)(c1ccccc1)n1ncc2c1nc(N)n1nc(-c3ccco3)nc21` (stereo not shown) [Example 30, 2-(5-amino-2-(furan-2-yl)-7H-pyrazolo[4,3-e][1,2,4]triazolo[1,5-c]pyrimidin-7-yl)-N-phenethyl-2-phenylpropanamide], the IC50 was 10.8 nM.
`CC(C(=O)NCC1(O)COC1)(c1cccnc1)n1ncc2c1nc(N)n1nc(-c3ccco3)nc21` (stereo not shown) [Example 89, 2-(5-amino-2-(furan-2-yl)-7H-pyrazolo[4,3-e][1,2,4]triazolo[1,5-c]pyrimidin-7-yl)-N-((3-hydroxyoxetan-3-yl)methyl)-2-(pyridin-3-yl)propanamide] came in with an IC50 of 767 nM.
The same measure for `C[C@](C(=O)NCc1ccc(C(F)(F)F)cn1)(c1ccccc1)n1ncc2c1nc(N)n1nc(-c3ccco3)nc21` [Example 142B, (R)-2-(5-amino-2-(furan-2-yl)-7H-pyrazolo[4,3-e][1,2,4]triazolo[1,5-c]pyrimidin-7-yl)-2-phenyl-N-((5-(trifluoromethyl)pyridin-2-yl)methyl)propanamide]: 1 nM.
`CC(C(=O)NCCO)(c1ccccc1)n1ncc2c1nc(N)n1nc(-c3ccco3)nc21` (stereo not shown) [Example 55, 2-(5-amino-2-(furan-2-yl)-7H-pyrazolo[4,3-e][1,2,4]triazolo[1,5-c]pyrimidin-7-yl)-N-(2-hydroxyethyl)-2-phenylpropanamide] registered an IC50 of 13.8 nM.
The same measure for `CC(C(=O)NCC1(O)CCC1)(c1ccccc1)n1ncc2c1nc(N)n1nc(-c3ccco3)nc21` (stereo not shown) [Example 71, 2-(5-amino-2-(furan-2-yl)-7H-pyrazolo[4,3-e][1,2,4]triazolo[1,5-c]pyrimidin-7-yl)-N-((1-hydroxycyclobutyl)methyl)-2-phenylpropanamide]: 3.8 nM; for `C[C@](C(=O)NCc1ccccn1)(c1ccccc1)n1ncc2c1nc(N)n1nc(-c3ccco3)nc21` [Example 66B, (R)-2-(5-amino-2-(furan-2-yl)-7H-pyrazolo[4,3-e][1,2,4]triazolo[1,5-c]pyrimidin-7-yl)-2-phenyl-N-(pyridin-2-ylmethyl)propanamide]: 2.4 nM.
`CC(C(=O)Nc1ccccn1)(c1ccccc1)n1ncc2c1nc(N)n1nc(-c3ccco3)nc21` (stereo not shown) [Example 77, 2-(5-amino-2-(furan-2-yl)-7H-pyrazolo[4,3-e][1,2,4]triazolo[1,5-c]pyrimidin-7-yl)-2-phenyl-N-(pyridin-2-yl)propanamide] returned an IC50 of 15.3 nM.
The same measure for `Nc1nc2c(cnn2C(C(=O)NCc2cccc(C3(O)CCC3)n2)c2ccccc2)c2nc(-c3ccco3)nn12` (stereo not shown) [Example 18, 2-(5-amino-2-(furan-2-yl)-7H-pyrazolo[4,3-e][1,2,4]triazolo[1,5-c]pyrimidin-7-yl)-N-((6-(1-hydroxycyclobutyl)pyridin-2-yl)methyl)-2-phenylacetamide]: 0.9 nM; for `COc1ccnc(CNC(=O)C(C)(c2ccccc2)n2ncc3c2nc(N)n2nc(-c4ccco4)nc32)c1` (stereo not shown) [Example 114, 2-(5-amino-2-(furan-2-yl)-7H-pyrazolo[4,3-e][1,2,4]triazolo[1,5-c]pyrimidin-7-yl)-N-((4-methoxypyridin-2-yl)methyl)-2-phenylpropanamide]: 3.3 nM.
With `COc1cccc(C(C)(C(=O)NCC2(O)COC2)n2ncc3c2nc(N)n2nc(-c4ccco4)nc32)c1` (stereo not shown) [Example 137, 2-(5-amino-2-(furan-2-yl)-7H-pyrazolo[4,3-e][1,2,4]triazolo[1,5-c]pyrimidin-7-yl)-N-((3-hydroxyoxetan-3-yl)methyl)-2-(3-methoxyphenyl)propanamide], the 50% inhibitory concentration (IC50) was 13 nM.
With `C[C@](C(=O)N[C@H]1C[C@@H](O)C1)(c1ccccc1)n1ncc2c1nc(N)n1nc(-c3ccco3)nc21` [Example 104B, (R)-2-(5-amino-2-(furan-2-yl)-7H-pyrazolo[4,3-e][1,2,4]triazolo[1,5-c]pyrimidin-7-yl)-(cis)-N-(3-hydroxycyclobutyl)-2-phenylpropanamide] the figure was 9.1 nM; with `CC(C(=O)NCc1ccccn1)(c1ccccc1)n1ncc2c1nc(N)n1nc(-c3ccco3)nc21` (stereo not shown) [Example 66, 2-(5-amino-2-(furan-2-yl)-7H-pyrazolo[4,3-e][1,2,4]triazolo[1,5-c]pyrimidin-7-yl)-2-phenyl-N-(pyridin-2-ylmethyl)propanamide], 6.2 nM; with `CC(C(=O)NCC1(O)CCOCC1)(c1ccccc1)n1ncc2c1nc(N)n1nc(-c3ccco3)nc21` (stereo not shown) [Example 80, 2-(5-amino-2-(furan-2-yl)-7H-pyrazolo[4,3-e][1,2,4]triazolo[1,5-c]pyrimidin-7-yl)-N-((4-hydroxytetrahydro-2H-pyran-4-yl)methyl)-2-phenylpropanamide], 9.4 nM.
For `Nc1nc2c(cnn2C(C(=O)N[C@H]2CCOc3ccccc32)c2ccccc2)c2nc(-c3ccco3)nn12` (stereo partly drawn) [Example 16, 2-(5-amino-2-(furan-2-yl)-7H-pyrazolo[4,3-e][1,2,4]triazolo[1,5-c]pyrimidin-7-yl)-N—((S)-chroman-4-yl)-2-phenylacetamide], half-maximal inhibition (IC50) was put at 44.6 nM.
The same measure for `CC(C(=O)N[C@H]1CC[C@@](C)(O)CC1)(c1ccccc1)n1ncc2c1nc(N)n1nc(-c3ccco3)nc21` (stereo partly drawn) [Example 33, 2-(5-amino-2-(furan-2-yl)-7H-pyrazolo[4,3-e][1,2,4]triazolo[1,5-c]pyrimidin-7-yl)-(trans)-N-(4-hydroxy-4-methylcyclohexyl)-2-phenylpropanamide]: 8.4 nM; for `CC(C(=O)NCc1ncccc1F)(c1ccccc1)n1ncc2c1nc(N)n1nc(-c3ccco3)nc21` (stereo not shown) [Example 119, 2-(5-amino-2-(furan-2-yl)-7H-pyrazolo[4,3-e][1,2,4]triazolo[1,5-c]pyrimidin-7-yl)-N-((3-fluoropyridin-2-yl)methyl)-2-phenylpropanamide]: 3.2 nM; for `Cc1ccnc(CNC(=O)[C@@](C)(c2ccccc2)n2ncc3c2nc(N)n2nc(-c4ccco4)nc32)c1` [Example 110B, (R)-2-(5-amino-2-(furan-2-yl)-7H-pyrazolo[4,3-e][1,2,4]triazolo[1,5-c]pyrimidin-7-yl)-N-((4-methylpyridin-2-yl)methyl)-2-phenylpropanamide]: 2.9 nM.
With `CC(C(=O)N[C@@H]1CNC(=O)C1)(c1ccccc1)n1ncc2c1nc(N)n1nc(-c3ccco3)nc21` (stereo partly drawn) [Example 100, 2-(5-amino-2-(furan-2-yl)-7H-pyrazolo[4,3-e][1,2,4]triazolo[1,5-c]pyrimidin-7-yl)-N—((S)-5-oxopyrrolidin-3-yl)-2-phenylpropanamide] the figure was 11.8 nM; with `CCOc1ccccc1CNC(=O)C(c1ccccc1)n1ncc2c1nc(N)n1nc(-c3ccco3)nc21` (stereo not shown) [Example 6, 2-(5-amino-2-(furan-2-yl)-7H-pyrazolo[4,3-e][1,2,4]triazolo[1,5-c]pyrimidin-7-yl)-N-(2-triethoxybenzyl)-2-phenylacetamide], 0.9 nM; with `CC(C(=O)N[C@H]1CCCOC1)(c1ccccc1)n1ncc2c1nc(N)n1nc(-c3ccco3)nc21` (stereo partly drawn) [Example 59, 2-(5-amino-2-(furan-2-yl)-7H-pyrazolo[4,3-e][1,2,4]triazolo[1,5-c]pyrimidin-7-yl)-2-phenyl-N—((S)-tetrahydro-2H-pyran-3-yl)propanamide], 11.1 nM.
With `COc1ccccc1C(C)(C(=O)NCC1(O)COC1)n1ncc2c1nc(N)n1nc(-c3ccco3)nc21` (stereo not shown) [Example 70, 2-(5-amino-2-(furan-2-yl)-7H-pyrazolo[4,3-e][1,2,4]triazolo[1,5-c]pyrimidin-7-yl)-N-((3-hydroxyoxetan-3-yl)methyl)-2-(2-methoxyphenyl)propanamide] the figure was 1.7 nM.
As for `CC1(O)CCC(NC(=O)[C@](C)(c2ccccc2)n2ncc3c2nc(N)n2nc(-c4ccco4)nc32)CC1` (stereo in doubt) [Example 69A, (S)-2-(5-amino-2-(furan-2-yl)-7H-pyrazolo[4,3-e][1,2,4]triazolo[1,5-c]pyrimidin-7-yl)-(cis)-N-(4-hydroxy-4-methylcyclohexyl)-2-phenylpropanamide], the IC50 was 41.6 nM.
For the compound `CCC(C(=O)NCC1(O)COC1)(c1ccccc1)n1ncc2c1nc(N)n1nc(-c3ccco3)nc21` (stereo not shown) [Example 103, 2-(5-amino-2-(furan-2-yl)-7H-pyrazolo[4,3-e][1,2,4]triazolo[1,5-c]pyrimidin-7-yl)-N-((3-hydroxyoxetan-3-yl)methyl)-2-phenylbutanamide], half-maximal inhibition (IC50) required 6.1 nM.
With `CC(C(=O)NCc1cc(F)ccn1)(c1ccccc1)n1ncc2c1nc(N)n1nc(-c3ccco3)nc21` (stereo not shown) [Example 118, 2-(5-amino-2-(furan-2-yl)-7H-pyrazolo[4,3-e][1,2,4]triazolo[1,5-c]pyrimidin-7-yl)-N-((4-fluoropyridin-2-yl)methyl)-2-phenylpropanamide] the figure was 7.2 nM.
